Experimental data: US11753634B2, “Method and apparatus for applying heat to living tissue” (NATIONAL TAIWAN UNIVERSITY, priority 2019, dated 2023)
Like-named read-outs stand apart in the source and are kept apart here.

Tests used:
[1] = system: human pancreatic cancer cells (PANC-1); assay: cells
From the text: In addition, for the portion of the living tissue, the human pancreatic cancer cells (PANC-1) are used instead of the neural cells as an example for illustration. Furthermore, the living pancreatic cancer cells are also placed in the culture solution of petri dish in order to perform the heat treatment method of the present invention.
In addition, for the portion of the living tissue, the human pancreatic cancer cells (PANC-1) are used as an example for illustration. Furthermore, the living pancreatic cancer cells are also placed in the culture solution of petri dish in order to perform the heat treatment method of the present invention.
The control group refers to the comparison group without the heat treatment according to the method of the present invention.

[2] = system: human neural cells (SH-SY5Y); assay: cell viability of human neural cells (SH-SY5Y) with/without cyclic heat treatment; conditions: hydrogen peroxide processing

How did the viability at 200 µM ([1]; PANC-1, read-out: cell viability, PANC-1, 200 μM CGA, ten times of heat treatment, 43.5° C. / approximately 36° C. (FIG. 10B)) turn out when O=C(/C=C/c1ccc(O)c(O)c1)O[C@@H]1C[C@](O)(C(=O)O)C[C@@H](O)[C@H]1O [CGA, chlorogenic acid] was run?
The viability at 200 µM was 53%.

And the viability at 200 µM ([1]; PANC-1, read-out: cell viability, PANC-1, 200 μM CGA, without the heat treatment (FIG. 10B))?
The viability at 200 µM was 88%.

Which results are given for Nc1ccn([C@@H]2O[C@H](CO)[C@@H](O)C2(F)F)c(=O)n1 [Gem, gemcitabine]?
viability at 5 µM ([1]; PANC-1, read-out: cell viability, PANC-1, 5 μM Gem, ten times of heat treatment, 43.5° C. / approximately 36° C. (FIG. 11)): 55%; viability at 5 µM ([1]; PANC-1, read-out: cell viability, PANC-1, 5 μM Gem, without the heat treatment (FIG. 11)): 90%

Which results are given for OO [hydrogen peroxide]?
cell viability ([2]; control group without the heat treatment (FIG. 5A, 5B)): 55%; cell viability ([2]; eight times of heat treatment, max 40.9° C. / min 39.4° C. (FIG. 5A)): 70%; cell viability ([2]; eight times of heat treatment, max 42.0° C. / min 40.3° C. (FIG. 5B)): 82%
